The text below walks through data of patent publication US11180474B2 (BRISTOL-MYERS SQUIBB COMPANY, priority 2016, dated 2021).

Where a name gives a salt, the structure may show the parent alone.

One may read the IC50 as the concentration that gives 50% inhibition. Higher therefore signals a need for much substance.

In this test the target is T1, human TLR8 (Homo sapiens, UniProt Q9NR97).
T1 construct: host or cells: HEK-Blue cells
T1 sequence (Q9NR97 27-1041): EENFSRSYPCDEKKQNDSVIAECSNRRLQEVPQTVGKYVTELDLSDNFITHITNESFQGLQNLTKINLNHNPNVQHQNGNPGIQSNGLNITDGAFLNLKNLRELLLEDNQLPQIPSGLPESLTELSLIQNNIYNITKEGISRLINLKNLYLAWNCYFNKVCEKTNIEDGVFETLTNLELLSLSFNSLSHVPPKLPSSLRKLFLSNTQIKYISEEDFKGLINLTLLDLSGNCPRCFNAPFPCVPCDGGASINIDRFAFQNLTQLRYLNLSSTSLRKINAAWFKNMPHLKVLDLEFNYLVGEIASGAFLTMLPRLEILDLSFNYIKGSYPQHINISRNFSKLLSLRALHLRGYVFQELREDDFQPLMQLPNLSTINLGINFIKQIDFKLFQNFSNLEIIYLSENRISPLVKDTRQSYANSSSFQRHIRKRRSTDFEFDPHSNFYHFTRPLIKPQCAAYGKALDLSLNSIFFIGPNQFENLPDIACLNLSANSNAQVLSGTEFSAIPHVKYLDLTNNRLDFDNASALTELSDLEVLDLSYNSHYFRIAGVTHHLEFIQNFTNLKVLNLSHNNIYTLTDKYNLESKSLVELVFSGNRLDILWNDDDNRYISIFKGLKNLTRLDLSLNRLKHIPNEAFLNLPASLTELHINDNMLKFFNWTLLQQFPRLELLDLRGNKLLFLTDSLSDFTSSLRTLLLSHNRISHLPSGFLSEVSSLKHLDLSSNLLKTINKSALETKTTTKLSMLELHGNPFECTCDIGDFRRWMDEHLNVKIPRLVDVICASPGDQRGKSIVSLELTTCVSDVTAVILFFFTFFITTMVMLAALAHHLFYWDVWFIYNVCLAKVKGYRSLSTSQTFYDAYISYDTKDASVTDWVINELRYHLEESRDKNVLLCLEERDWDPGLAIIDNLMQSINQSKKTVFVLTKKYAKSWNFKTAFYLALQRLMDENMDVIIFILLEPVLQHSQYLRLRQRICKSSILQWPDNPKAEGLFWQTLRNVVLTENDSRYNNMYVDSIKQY
The test is described as follows: TLR8 inhibition reporter assay (HEK-Blue cells, SEAP reporter, R848 stimulation). It counts as cell-based. The conditions noted are these: HEK-Blue cells overexpressing human TLR8, R848 15.9 μM. In a few lines: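 SEAP readout via HEK-Blue Detection medium after 22 h at 37 °C, 5% CO2 defines inhibition, normalized between agonist-plus-DMSO wells and a reference inhibitor. Compound dose range 0.05 nM–50 μM; TLR7 cells at 15,000/well (gardiquimod), TLR8 at 20,000/well (R848).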
With `COc1ccc(-c2[nH]c3ccc(C4CCN(C(=O)CN5CCC(N6CCCCC6)CC5)CC4)cc3c2C(C)C)cc1OC` [Example 211, 2-([1,4′-bipiperidin]-1′-yl)-1-(4-(2-(3,4-dimethoxyphenyl)-3-isopropyl-1H-indol-5-yl)piperidin-1-yl)ethan-1-one], the IC50 is 25 nM. Under `CCc1c(-c2ccc(OC)c(OC)c2)[nH]c2ccc(C3CCN(C(=O)CNCC#N)CC3)cc12` [Example 161, 2-((2-(4-(2-(3,4-dimethoxyphenyl)-3-ethyl-1H-indol-5-yl)piperidin-1-yl)-2-oxoethyl)amino)acetonitrile] stands 332 nM; under `CCc1c(-c2ccc(OC)c(OC)c2)[nH]c2ccc(C3CCN(C(=O)CN(C)C)CC3)cc12` [Example 181, 1-(4-(2-(3,4-dimethoxyphenyl)-3-ethyl-1H-indol-5-yl)piperidin-1-yl)-2-(dimethylamino) ethanone], 66 nM; under `CCc1c(-c2ccc(OC)c(OC)c2)[nH]c2ccc(C3CCNCC3)cc12` [Example 122, 2-(3,4-dimethoxyphenyl)-3-ethyl-5-(piperidin-4-yl)-1H-indole], 26 nM. The result for `CCc1c(-c2ccc(OC)c(OC)c2)[nH]c2ccc(C3CCN(C4CCN(Cc5ccc(C)s5)CC4)CC3)cc12` [Example 140, 2-(3,4-dimethoxyphenyl)-3-ethyl-5-(1′-((5-methylthiophen-2-yl)methyl)-[1,4′-bipiperidin]-4-yl)-1H-indole] reads 240 nM; that for `COc1ccc(-c2[nH]c3ccc(C4CCN(C5CCN(C)CC5)CC4)cc3c2C(C)C)cc1OC` [Example 200, 2-(3,4-dimethoxyphenyl)-3-isopropyl-5-(1′-methyl-[1,4′-bipiperidin]-4-yl)-1H-indole], 27 nM. The result for `CCc1c(-c2ccc(OC)c(OC)c2)[nH]c2c(F)cc(C3CCNCC3)cc12` [Example 189, 2-(3,4-dimethoxyphenyl)-3-ethyl-7-fluoro-5-(piperidin-4-yl)-1H-indole] reads 620 nM; that for `COc1ccc(-c2[nH]c3ccc(C4CCN(C(=O)CNCC(C)(C)CO)CC4)cc3c2C(C)C)cc1OC` [Example 219, 1-(4-(2-(3,4-dimethoxyphenyl)-3-isopropyl-1H-indol-5-yl)piperidin-1-yl)-2-((3-hydroxy-2,2-dimethylpropyl)amino)ethan-1-one], 39 nM; that for `CNCCN1CCC(c2cc3c(C(C)C)c(-c4ccc(OC)c(OC)c4)[nH]c3cc2C)CC1` [Example 207, 2-(4-(2-(3,4-dimethoxyphenyl)-3-isopropyl-6-methyl-1H-indol-5-yl)piperidin-1-yl)-N-methylethan-1-amine], 46900 nM. For `CCc1c(-c2ccc(OC)c(OC)c2)[nH]c2ccc(C3CCN(C(=O)CNc4nccs4)CC3)cc12` [Example 177, 1-(4-(2-(3,4-dimethoxyphenyl)-3-ethyl-1H-indol-5-yl)piperidin-1-yl)-2-(thiazol-2-ylamino)ethanone], it took 36 nM to reach half-maximal inhibition (IC50).

The compound `CCc1c(-c2ccc(OC)c(OC)c2)[nH]c2ccc(C3CCN(C(=O)C4(C)CCNCC4)CC3)cc12` [Example 187, (4-(2-(3,4-dimethoxyphenyl)-3-ethyl-1H-indol-5-yl)piperidin-1-yl)(4-methylpiperidin-4-yl)methanone] had an IC50 of 162 nM.

With `COc1ccc(-c2[nH]c3ccc(C4CCN(C5CCN(CC(C)C)CC5)CC4)cc3c2C)cc1OC` [Example 6, 2-(3,4-dimethoxyphenyl)-5-(1′-isobutyl-[1,4′-bipiperidin]-4-yl)-3-methyl-1H-indole], the IC50 was 247 nM. The result for `COc1ccc(-c2[nH]c3ccc(C4CCNCC4)cc3c2C(C)C)cc1OC` [Example 194, 2-(3,4-dimethoxyphenyl)-3-isopropyl-5-(piperidin-4-yl)-1H-indole hydrochloride] reads 54 nM; that for `CCc1c(-c2ccc(OC)c(OC)c2)[nH]c2ccc(C3CCN(C4CCN(Cc5cc6ccccc6[nH]5)CC4)CC3)cc12` [Example 128, 5-(1′-((1H-indol-2-yl)methyl)-[1,4′-bipiperidin]-4-yl)-2-(3,4-dimethoxyphenyl)-3-ethyl-1H-indole], 629 nM; that for `COc1ccc(-c2[nH]c3cc(C)c(C4CCN(C5CCN(C(C)C)CC5)CC4)cc3c2C(C)C)cc1OC` [Example 206, 2-(3,4-dimethoxyphenyl)-3-isopropyl-5-(1′-isopropyl-[1,4′-bipiperidin]-4-yl)-6-methyl-1H-indole di trifluoroacetic acid], 14500 nM. For `CCc1c(-c2ccc(OC)c(OC)c2)[nH]c2ccc(C3CCN(C(=O)C4CCNCC4)CC3)cc12` [Example 186, (4-(2-(3,4-dimethoxyphenyl)-3-ethyl-1H-indol-5-yl)piperidin-1-yl)(piperidin-4-yl) methanone], the concentration for half-maximal inhibition (IC50) is 132 nM. The result for `CCOC(=O)c1c(C)[nH]c(CN2CCC(N3CCC(c4ccc5[nH]c(-c6ccc(OC)c(OC)c6)c(CC)c5c4)CC3)CC2)c1C` [Example 127, ethyl 5-((4-(2-(3,4-dimethoxyphenyl)-3-ethyl-1H-indol-5-yl)-[1,4′-bipiperidin]-1′-yl)methyl)-2,4-dimethyl-1H-pyrrole-3-carboxylate] reads 345 nM; that for `CCc1c(-c2ccc(OC)c(OC)c2)[nH]c2c(F)cc(C3CCN(CCNC)CC3)cc12` [Example 191, 2-(4-(2-(3,4-dimethoxyphenyl)-3-ethyl-7-fluoro-1H-indol-5-yl)piperidin-1-yl)-N-methylethan-1-amine], 110 nM; that for `COc1ccc(-c2[nH]c3ccc(C4CCN(C5CCN(CC(C)C)CC5)CC4)cc3c2C(C)C)cc1OC` [Example 199, 2-(3,4-dimethoxyphenyl)-5-(1′-isobutyl-[1,4′-bipiperidin]-4-yl)-3-isopropyl-1H-indole], 19 nM. The result for `CCc1c(-c2ccc(OC)c(OC)c2)[nH]c2ccc(C3CCN(C(=O)CN4CCCC(C(=O)N(CC)CC)C4)CC3)cc12` (single isomer, unassigned) [Example 179, 1-(2-(4-(2-(3,4-dimethoxyphenyl)-3-ethyl-1H-indol-5-yl)piperidin-1-yl)-2-oxoethyl)-N,N-diethylpiperidine-3-carboxamide] reads 68 nM.

`CNCCN1CCC(c2cc3c(C(C)C)c(-c4ccc(OC)c(OC)c4)[nH]c3cc2F)CC1` [Example 208, 2-(4-(2-(3,4-dimethoxyphenyl)-6-fluoro-3-isopropyl-1H-indol-5-yl)piperidin-1-yl)-N-methylethan-1-amine] registered an IC50 of 35 nM.

Consider `COc1ccc(-c2[nH]c3ccc(C4CCN(C(=O)CNC56CC7CC(CC(O)(C7)C5)C6)CC4)cc3c2C(C)C)cc1OC` [Example 218, 1-(4-(2-(3,4-dimethoxyphenyl)-3-isopropyl-1H-indol-5-yl)piperidin-1-yl)-2-(((1r,3s,5R,7S)-3-hydroxyadamantan-1-yl)amino)ethan-1-one], for which the midpoint of inhibition, the IC50, lay at 54 nM. Under `COc1ccc(-c2[nH]c3ccc(C4CCN(C5CCN(C(C)C)CC5)CC4)cc3c2C)cc1OC` [Example 10, 2-(3,4-dimethoxyphenyl)-5-(1′-isopropyl-[1,4′-bipiperidin]-4-yl)-3-methyl-1H-indole] stands 201 nM; under `CCc1c(-c2ccc(OC)c(OC)c2)[nH]c2ccc(C3CCN(C4CCN(Cc5ccsc5)CC4)CC3)cc12` [Example 142, 2-(3,4-dimethoxyphenyl)-3-ethyl-5-(1′-(thiophen-3-ylmethyl)-[1,4′-bipiperidin]-4-yl)-1H-indole], 101 nM. Under `COc1ccc(-c2[nH]c3ccc(C4CCN(C(=O)CNC5CCC(N(C)C)CC5)CC4)cc3c2C(C)C)cc1OC` (stereo not drawn) [Example 215, 1-(4-(2-(3,4-dimethoxyphenyl)-3-isopropyl-1H-indol-5-yl)piperidin-1-yl)-2-((4-(dimethylamino)cyclohexyl)amino)ethan-1-one] stands 163 nM; under `CCc1c(-c2ccc(OC)c(OC)c2)[nH]c2ccc(C3CCN(C(C)=O)CC3)cc12` [Example 185, 1-(4-(2-(3,4-dimethoxyphenyl)-3-ethyl-1H-indol-5-yl)piperidin-1-yl)ethan-1-one], 837 nM.

In turn, `COc1ccc(-c2[nH]c3ccc(C4CCN(C(=O)CNC5(CO)CCCC5)CC4)cc3c2C(C)C)cc1OC` [Example 213, 1-(4-(2-(3,4-dimethoxyphenyl)-3-isopropyl-1H-indol-5-yl)piperidin-1-yl)-2-((1-(hydroxymethyl)cyclopentyl)amino)ethan-1-one] gave a half-maximal inhibitory concentration (IC50) of 18 nM.
